Test results taken from PubChem BioAssay AID2376 (NMMLSC, 2010).
pEC50: −log10 of the molar value.

Molecular target: Cell division control protein 42 homolog (Homo sapiens) (UniProt P60953)
Assay: concentration effect on fluorescent GTP binding to Cdc42 – biochemical, nucleotide-depleted protein, Mg buffer, constant GTP, mechanism study for Ras-family GTPase inhibitor project, dose response (AID 2376)
Settings: GST-Cdc42 beads, BODIPY-GTP binding, flow cytometry

Sequence of Cell division control protein 42 homolog (Homo sapiens) (P60953 whole entry, looked up): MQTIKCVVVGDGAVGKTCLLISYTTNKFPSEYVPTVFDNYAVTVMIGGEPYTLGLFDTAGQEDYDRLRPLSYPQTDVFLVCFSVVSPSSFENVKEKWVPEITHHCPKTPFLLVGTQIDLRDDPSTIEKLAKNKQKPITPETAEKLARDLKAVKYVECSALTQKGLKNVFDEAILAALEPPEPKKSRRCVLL

SMILES: COc1ccc(C2CC(c3ccccc3)=NN2c2ccc(S(N)(=O)=O)cc2)cc1 (stereo unspecified)
- pEC50: 6.58
